# Like-named read-outs stand apart in the source and are kept apart here. Where a SMILES comes first, the peptide text is derived from it. Bridges are numbered along the chain shown (N, C = ends). [ ]: non-standard residue; d: D form. The star is where a group is joined. Ileψ(thiazoline)Cys = CC[C@H](C)[C@H](N)C1=N[C@H](C(=O)*)CS1; dOrn = NCCC[C@@H](N)C(=O)O
# Assays:
# E. faecium CCUG 37832 = assay: MIC determination by standardized microdilution test in Mueller-Hinton broth; format: cell-based, Enterococcus faecium
# Description: (§1) MBL-AB01 was tested against a panel of Gram-negative and Gram-positive pathogens. MICs for all Gram-positive and Gram-negative bacterial strains were determined by standardized microdilution tests using Mueller-Hinton broth (Acumedia). Bacterial inoculums containing 5×10^5 CFU/ml were incubated for 19 h at 35° C. in the presence of different antibiotic concentrations according to Clinical and Laboratory Standards Institute protocols. The bacterial strains were obtained from the culture collections ATCC (American Type Culture Collection), NCTC (National Collection of Type Cultures) and CCUG (culture collection university of Göteborg Sweden).
# E. faecium CTC 492 = assay: as above; format: cell-based, Enterococcus faecium
# Description: as §1
# [1] = test system: S. aureus ATCC 43300 (MRSA); assay: as above; format: cell-based
# Description: as §1
# S. aureus NCTC 6571 = assay: as above; format: cell-based
# Description: as §1
# S. aureus ATCC 29213 = assay: as above; format: cell-based
# Description: as §1
# M. luteus, ATCC 9341 = assay: as above; format: cell-based, Micrococcus luteus
# Description: as §1
# [2] = test system: IMR90 Human Lung Fibroblast (ATCC CCL-186) cells; assay: In vitro cytotoxicity, CellTiter-GLO 2.0 viability assay; format: cell-based; conditions: IMR-90, 24 hours exposure, viability relative to control wells
# Description: Xantolipin was obtained from Shaghai Jiao Tong University, China.
# IMR90 cells were grown in DMEM—low glucose (Sigma) supplemented with 2 mM L-Glutamine, 1% MEM NEAA (Sigma), 1 mM Sodium Pyruvate, 10 mM HEPES and 100 U/mL Pen-Strep. The cells were subcultured twice or thrice a week at ratios between 1:2 and 1:8, depending on confluency. […] The microplates with cell suspension were shaked at 1600 rpm with 2.5 mm amplitude (Bioshake) for 20 seconds after seeding. […] The microplates with the IMR90 cells were incubated at 37° C. with 5% CO2 atmosphere. […] The serial dilutions with the compounds were further diluted in cell culture medium and transferred to the assay wells, giving a total DMSO concentration in the assay wells of 0.6%. After exposure, the assay plates with the IMR90 cells were further incubated at 37° C. with 5% CO2 atmosphere for 24 hours. The viability of the cells after incubation was measured using the Promega CellTiter-GLO 2.0 viability assay.
# [3] = footnote of Table 1: resistance profile of Enterococcus faecium CCUG37832, read-out: Mic
# [4] = Enterococcus faecium, CTC492, E. faecium CTC 492, 19 h at 35° C., read-out: MIC
# [5] = Enterococcus faecium, CCUG37832, E. faecium CCUG 37832 (multiresistant, vanA-positive clinical isolate), 19 h at 35° C., read-out: MIC
# [6] = Staphylococcus aureus, S. aureus ATCC 43300 (MRSA), 19 h at 35° C., read-out: MIC
# [7] = Staphylococcus aureus, NCTC6571, S. aureus NCTC 6571, 19 h at 35° C., read-out: MIC
# [8] = Staphylococcus aureus, ATCC29213, S. aureus ATCC 29213, 19 h at 35° C., read-out: MIC
# [9] = Micrococcus luteus, ATCC9341, M. luteus, ATCC 9341, 19 h at 35° C., read-out: MIC
compound,measurement,setting,value
CC1(C)S[C@@H]2[C@H](NC(=O)[C@H](N)c3ccccc3)C(=O)N2[C@H]1C(=O)O [Ampicillin],MIC,E. faecium CCUG 37832; [3],20 mg/L
CN[C@@H]1[C@@H](O[C@H]2O[C@H](CO)[C@@H](N)[C@H](O)[C@H]2O)OC2C[C@@H](N)[C@@H](O[C@H]3[C@H](O)[C@@H](O)[C@H](N)C[C@@H]3N)OC2[C@@H]1O (stereo partly shown) [Apramycin],MIC,E. faecium CCUG 37832; [3],> 20 mg/L
CC[C@H](C)[C@H](N)C1=N[C@H](C(=O)N[C@@H](CC(C)C)C(=O)N[C@H](CCC(=O)O)C(=O)N[C@H](C(=O)N[C@H]2CCCCNC(=O)[C@H](CC(N)=O)NC(=O)[C@@H](CC(=O)O)NC(=O)[C@H](Cc3cnc[nH]3)NC(=O)[C@@H](Cc3ccccc3)NC(=O)[C@H]([C@@H](C)CC)NC(=O)[C@@H](CCCN)NC2=O)[C@@H](C)CC)CS1 [Bacitracin] ({Ileψ(thiazoline)Cys}-L[dE]IK[dOrn]I[dF]H[dD]N; lactam 4-C),MIC,E. faecium CCUG 37832; [3],> 8 mg/L
CN(C)[C@@H]1C(O)=C(C(N)=O)C(=O)[C@@]2(O)C(O)=C3C(=O)c4c(O)ccc(Cl)c4[C@@](C)(O)[C@H]3C[C@@H]12 [Chlortetracycline],MIC,E. faecium CCUG 37832; [3],> 10 mg/L
N[C@@H]1CON=C1O [Cycloserine],MIC,E. faecium CCUG 37832; [3],> 8 mg/L
CCCCCCCCCC(=O)N[C@@H](Cc1c[nH]c2ccccc12)C(=O)N[C@H](CC(N)=O)C(=O)N[C@@H](CC(=O)O)C(=O)N[C@@H]1C(=O)NCC(=O)N[C@@H](CCCN)C(=O)N[C@@H](CC(=O)O)C(=O)N[C@H](C)C(=O)N[C@@H](CC(=O)O)C(=O)NCC(=O)N[C@H](CO)C(=O)N[C@@H]([C@H](C)CC(=O)O)C(=O)N[C@@H](CC(=O)c2ccccc2N)C(=O)O[C@@H]1C [Daptomycin],MIC,E. faecium CTC 492; [4],> 16 mg/L
same,MIC,E. faecium CCUG 37832; [5],> 16 mg/L
same,MIC,[1]; [6],4 mg/L
same,MIC,S. aureus NCTC 6571; [7],4 mg/L
same,MIC,S. aureus ATCC 29213; [8],4 mg/L
same,MIC,"M. luteus, ATCC 9341; [9]",0.5 mg/L
CCC[C@@H]1C[C@@H](C(=O)N[C@@H]([C@H]2O[C@H](SC)[C@H](O)[C@@H](O)[C@H]2O)[C@@H](C)O)N(C)C1 [Lincomycin],MIC,E. faecium CCUG 37832; [3],> 10 mg/L
CN[C@@H]1[C@H](O)[C@H](NC)[C@H]2O[C@@]3(O)C(=O)C[C@@H](C)O[C@H]3O[C@@H]2[C@H]1O [Spectinomycin],MIC,E. faecium CCUG 37832; [3],> 8 mg/L
[H]/N=C(/N)N[C@H]1[C@H](O)[C@@H](O)[C@H](O[C@@H]2O[C@@H](C)[C@](O)(C=O)[C@H]2O[C@@H]2O[C@@H](CO)[C@H](O)[C@@H](O)[C@@H]2NC)[C@@H](N/C(N)=N\[H])[C@@H]1O [Streptomycin],MIC,E. faecium CTC 492; [4],> 16 mg/L
same,MIC,E. faecium CCUG 37832; [5],> 16 mg/L
same,MIC,[1]; [6],16 mg/L
same,MIC,S. aureus NCTC 6571; [7],16 mg/L
same,MIC,S. aureus ATCC 29213; [8],16 mg/L
same,MIC,"M. luteus, ATCC 9341; [9]",8 mg/L
CN[C@H](CC(C)C)C(=O)N[C@H]1C(=O)N[C@@H](CC(N)=O)C(=O)N[C@H]2C(=O)N[C@H]3C(=O)N[C@H](C(=O)N[C@H](C(=O)O)c4cc(O)cc(O)c4-c4cc3ccc4O)[C@H](O)c3ccc(c(Cl)c3)Oc3cc2cc(c3O[C@@H]2O[C@H](CO)[C@@H](O)[C@H](O)[C@H]2O[C@H]2C[C@](C)(N)[C@H](O)[C@H](C)O2)Oc2ccc(cc2Cl)[C@H]1O [Vancomycin],MIC,"E. faecium CTC 492; Enterococcus faecium, CTC492, 19 h",1 mg/L
same,MIC,"E. faecium CCUG 37832; Enterococcus faecium, CCUG37832",> 20 mg/L
same,MIC,"E. faecium CCUG 37832; Enterococcus faecium, CCUG37832, 19 h",> 16 mg/L
same,MIC,"[1]; Staphylococcus aureus, 19 h",2 mg/L
same,MIC,"S. aureus NCTC 6571; Staphylococcus aureus, NCTC6571, 19 h",2 mg/L
same,MIC,"S. aureus ATCC 29213; Staphylococcus aureus, ATCC29213, 19 h",2 mg/L
same,MIC,"M. luteus, ATCC 9341; Micrococcus luteus, ATCC9341, 19 h",1 mg/L
COc1c(Cl)ccc2c(=O)c3c(O)c4c5c(c3oc12)OCO[C@@H]5C[C@@H]1C(=O)c2cc(C)[nH]c(=O)c2C(=O)[C@]41O [Xantholipin],EC50,[2],1 mg/L
CC[C@H]1OC(=O)[C@H](C)[C@@H](O[C@H]2C[C@@](C)(OC)[C@@H](O)[C@H](C)O2)[C@H](C)[C@@H](O[C@@H]2O[C@H](C)C[C@H](N(C)C)[C@H]2O)[C@](C)(O)C[C@@H](C)C(=O)[C@H](C)[C@@H](O)[C@]1(C)O [erythromycin],MIC,E. faecium CCUG 37832; [3],> 20 mg/L
Gentamicin,MIC,"E. faecium CTC 492; E. faecium CTC 492, 19 h at 35° C.",16 mg/L
same,MIC,"E. faecium CCUG 37832; E. faecium CCUG 37832 (multiresistant, vanA-positive clinical isolate), 19 h at 35° C.",16 mg/L
same,MIC,"[1]; S. aureus ATCC 43300 (MRSA), 19 h at 35° C.",16 mg/L
same,MIC,"S. aureus NCTC 6571; S. aureus NCTC 6571, 19 h at 35° C.",4 mg/L
same,MIC,"S. aureus ATCC 29213; S. aureus ATCC 29213, 19 h at 35° C.",4 mg/L
same,MIC,"M. luteus, ATCC 9341; M. luteus, ATCC 9341, 19 h at 35° C.",4 mg/L

# — patent US10494375B2, “Antimicrobial compound” (priority 2016, dated 2019)
